Results on 2 molecules are retold here after patent US11254640B2, “N-substituted indoles and other heterocycles for treating brain disorders” (The Regents of the University of California, priority 2019, dated 2022).

In one data set the test system is 5HT2A sensor. Briefly: 5HT2A sensor assay, agonist mode (sLight1.3s HEK293T stable line). Format: cell-based. In short, it runs like this: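 Fluorescence change, dFF=(Fsat−Fapo)/Fapo, was taken from membrane images (460 nm excitation) before and after compound addition and scaled as % activation, with the DMSO mean as 0 and the 5HT mean as 100. The cells were sLight1.3s HEK293T in HBSS. Final compound levels were 100 μM, 10 μM and 100 nM in 0.1% DMSO, in triplicate.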

Data set [1] deals with cortical neurons. Briefly: Dendritogenesis assay, Sholl analysis. It counts as cell-based, rat. The note with it: Rattus norvegicus, Cortical neurone; 10 μM; Nmax with vehicle (DMSO) = 0% and ketamine = 100%; read-out: % efficacy in sholls. The gist of the method: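 Rat cortical neurons (timed-pregnant Sprague Dawley) were treated at DIV3 with compound at 10 μM unless noted (0.1% DMSO) for 1 h, washed out, grown 71 h more. Fixed, MAP2-immunostained, imaged; Sholl Nmax, with % efficacy scaled to DMSO (0%) and ketamine (100%).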

For a further data set, the system named is rats. The note with it: rats trained to discriminate DOM from saline; cited from earlier work.
The subject of data set [2] is cortical neurons. Briefly: Ketanserin blocking experiments (dendritogenesis). Format: cell-based, rat. The note with it: ketanserin 10 μM, drug 1 μM (FIG. 7). The protocol:
Ketanserin Blocking Experiments. For the ketaserin blocking experiments (FIG. 7), a slightly modified method was employed. On DIV 3, neurons were first treated with ketanserin (10 μM) for 1 h followed by a 1 h incubation with drug (1 μM) and ketanserin (10 μM) (final concentration of DMSO=0.2%). After 1 h, the media was removed and replaced with new Neurobasal media containing 1× B27 supplement, 1% penicillin-streptomycin, 0.5 mM glutamine, and 12.5 μM glutamate. The cells were allowed to grow for an additional 71 h before being fixed, stained, and imaged.

For the next data set, the system named is C57BL/6J mice. Description: Head twitch response (HTR) assay. It counts as in vivo, mouse. The note with it: intraperitoneal injection, head-twitches over 20 mins (FIG. 8, FIG. 9). An excerpt:
Animals. For the dendritogenesis experiments, timed pregnant Sprague Dawley rats were obtained from Charles River Laboratories (Wilmington, Mass.). For the head-twitch response assay, male and female C57BL/6J mice were obtained from Jackson Laboratory (Sacramento, Calif.). Mice were housed in a temperature and humidity-controlled room maintained on a 12-h light/dark cycle in groups of 4-5 (same sex). Animals weighed between 17 and 30 g at the time of the experiments. All experimental procedures involving rodents were approved by the UC Davis Institutional Animal Care and Use Committee (IACUC) and adhered to principles described in the National Institutes of Health Guide for the Care and Use of Laboratory Animals. The University of California, Davis and the University of California, San Francisco are accredited by the Association for Assessment and Accreditation of Laboratory Animal Care International (AAALAC).
Head twitch response experiments. Mice (9-10 weeks old) were injected intraperitoneally with compound (injection volume 5 ml/kg), placed in an empty cage, and filmed for 20 minutes. Cages were cleaned with 70% ethanol between experiments.

In a further data set the test system is C57/BL6J mice. Briefly: Forced swim test (FST). It counts as in vivo, mouse. The note with it: 24 h after drug administration; i.p., compounds 20 mg/kg, ketamine 3 mg/kg. As to the method:
Forced Swim Test. As increased cortical structural plasticity in the anterior parts of the brain mediates the sustained (>24 h) antidepressant-like effects of ketamine and play a role in the therapeutic effects of 5-HT2A agonists, the impact of IsoDMT analogs on forced swim test (FST) behavior (FIG. 14A and FIG. 14B) was evaluated. First, a pretest was used to induce a depressive phenotype. Compounds were administered 24 h after the pre-test, and the FST was performed 24 h and 7 d post drug administration.
Forced Swim Test (FST). Male C57/BL6J mice (9-10 weeks old at time of experiment) were obtained from the Jackson Lab and housed 4-5 mice/cage in a UCD vivarium following an IACUC approved protocol. After 1 week in the vivarium each mouse was handled for approximately 1 minute by a experimenter for 3 consecutive days leading up to the first FST. […] Immobility scores for all mice were determined after the pre-test and mice were randomly assigned to treatment groups to generate groups with similar average immobility scores to be used for the following two FST sessions. […] Experiments were video-recorded and manually scored offline. Immobility time—defined as passive floating or remaining motionless with no activity other than that needed to keep the mouse's head above water—was scored for the last 4 min of the 6 min trial.

For `COc1ccc2[nH]cc(CCN(C)C)c2c1` [Example 28, 2-(5-methoxy-1H-indol-3-yl)-N,N-dimethylethan-1-amine, reference compound], the “activation of 5HT2A sensor assay in agonist mode at 10 μM” value in the data set on 5HT2A sensor (10 μM of compound (FIG. 11)) is “activate the 5HT2A sensor assay in agonist mode”. In addition, the “activation of 5HT2A sensor assay in agonist mode (dose response)” value in the data set on 5HT2A sensor (dose response (FIG. 10)) is given as “activate”. Moreover, in the data set with cortical neurons [1], the Emax at 10 µM was 80%. Further, in the data set with rats, the “substitution for hallucinogenic training drug (DOM) in drug discrimination” value is “substitutes”. Also, the “effect of 5-HT2A antagonist pretreatment on increase in dendritic growth” value with cortical neurons [2] is “blocked”. Also, the “head-twitch response (hallucinogenic potential)” value in the data set with C57BL/6J mice is given as “robust, dose-dependent HTR”.
`CNC1(c2ccccc2Cl)CCCCC1=O` (stereo not shown) [ketamine, reference compound]: in the data set on C57/BL6J mice, the “immobility in forced swim test” value is “significantly reduced immobility”.
